Experiment [1] deals with T1, Kinesin-like protein KIF11 (Homo sapiens) (UniProt P52732).
T1 sequence (whole entry): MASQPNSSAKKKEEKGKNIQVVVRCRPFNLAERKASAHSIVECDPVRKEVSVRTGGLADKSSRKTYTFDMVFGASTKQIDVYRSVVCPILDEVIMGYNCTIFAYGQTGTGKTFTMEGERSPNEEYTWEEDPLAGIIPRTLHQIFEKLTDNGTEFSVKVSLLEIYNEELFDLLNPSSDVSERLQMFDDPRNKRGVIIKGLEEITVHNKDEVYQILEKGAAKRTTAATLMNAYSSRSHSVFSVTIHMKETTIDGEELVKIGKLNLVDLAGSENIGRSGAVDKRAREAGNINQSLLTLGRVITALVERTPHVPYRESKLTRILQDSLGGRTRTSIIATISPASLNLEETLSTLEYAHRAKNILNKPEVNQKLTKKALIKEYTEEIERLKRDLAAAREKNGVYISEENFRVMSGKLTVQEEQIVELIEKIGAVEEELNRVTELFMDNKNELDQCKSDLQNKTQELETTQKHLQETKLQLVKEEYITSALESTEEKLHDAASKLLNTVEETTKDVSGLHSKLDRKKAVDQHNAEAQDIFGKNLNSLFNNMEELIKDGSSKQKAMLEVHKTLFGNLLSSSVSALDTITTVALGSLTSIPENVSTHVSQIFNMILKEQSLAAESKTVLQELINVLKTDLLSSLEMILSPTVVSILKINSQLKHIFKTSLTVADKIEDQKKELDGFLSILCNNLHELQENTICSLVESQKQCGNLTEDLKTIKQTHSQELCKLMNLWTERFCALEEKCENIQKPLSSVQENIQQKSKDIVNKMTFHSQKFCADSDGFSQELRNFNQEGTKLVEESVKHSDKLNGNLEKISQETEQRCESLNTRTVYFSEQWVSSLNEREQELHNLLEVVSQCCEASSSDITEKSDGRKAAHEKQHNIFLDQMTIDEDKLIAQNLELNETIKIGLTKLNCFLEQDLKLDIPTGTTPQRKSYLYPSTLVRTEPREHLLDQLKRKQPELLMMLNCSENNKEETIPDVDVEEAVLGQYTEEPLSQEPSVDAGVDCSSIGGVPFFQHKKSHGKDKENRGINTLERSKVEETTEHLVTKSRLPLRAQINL
As to the kind of experiment: Inhibition of microtubule-stimulated ATPase activity of N-terminal His-6-tagged human wild type Eg5 (1 to 368) expressed in Escherichia coli BL21 by pyruvate kinase/lactate dehydrogenase-linked assay relative to control.

Experiment [2] has as its system T2, Kinesin-like protein KIF11 (Homo sapiens), P52732 [D130V].
T2 sequence (whole entry): T1 sequence (whole entry) with D130V
As to the kind of experiment: Inhibition of microtubule-stimulated ATPase activity of human Eg5 D130V mutant expressed in Escherichia coli BL21 by pyruvate kinase/lactate dehydrogenase-linked assay relative to control.

For experiment [3], the system named is T3, Kinesin-like protein KIF11 (Homo sapiens), P52732 [A133D].
T3 sequence (whole entry): T1 sequence (whole entry) with A133D
As to the kind of experiment: Inhibition of microtubule-stimulated ATPase activity of human Eg5 A133D mutant expressed in Escherichia coli BL21 by pyruvate kinase/lactate dehydrogenase-linked assay relative to control.

Experiment [4] deals with T4, Kinesin-like protein KIF11 (Homo sapiens), P52732 [D130V,A133D].
T4 sequence (whole entry): T1 sequence (whole entry) with D130V, A133D
As to the kind of experiment: Inhibition of microtubule-stimulated ATPase activity of human Eg5 D130V/A133D mutant expressed in Escherichia coli BL21 by pyruvate kinase/lactate dehydrogenase-linked assay relative to control.

Changes are numbered by the printed parent chain.

In the case of `Cc1ccc(C(=O)N(CCCN)[C@@H](c2oc3cc(Cl)ccc3c(=O)c2Cc2ccccc2)C(C)C)cc1`, the ICmax came out at 95% in experiment [1], 50% in experiment [2], 50% in experiment [3] and 10% in experiment [4].

The values are drawn from ChEMBL document CHEMBL2417484, “Mitotic kinesin Eg5 overcomes inhibition to the phase I/II clinical candidate SB743921 by an allosteric resistance mechanism” (J Med Chem, 2013).
